Assay results from patent US20260174905A1, “COMPOSITIONS AND METHODS FOR IMPROVED ADENOVIRAL-BASED GENE THERAPY UTILIZING CORT[…]” (Pacira Therapeutics, Inc., priority 2023, published 2026).

Key:
rat knee joint = experiment: Synovial/periarticular inflammation in rat knee joint after intraarticular HDAd-LacZ with or without TAC; assay type: in vivo; details: coadministration of 0.06 mg TAC with HDAd-LacZ
Protocol: Rats obtained from Envigo (Indianapolis, IN) were housed in polycarbonate cages, 4 animals per cage. After 4 days acclimatization, on study day 0, animals (mean weight of 310 g) were randomized into groups by bodyweight, 6 animals per group. Following randomization, test article administration was performed by intraarticular injection of 50 μL/joint. In respective groups, animals were treated with: 5E7 VP HDAd-LacZ, 5E8 VP HDAd-LacZ, 5E9 VP HDAd-LacZ, 5E10 VP HDAd-LacZ, 5E7 VP HDAd-LacZ+0.06 mg TAC, 5E8 VP HDAd-LacZ+0.06 mg TAC, 5E9 VP HDAd-LacZ+0.06 mg TAC, 5E10 VP HDAd-LacZ+0.06 mg TAC or vehicle.
For the groups co-treated with HDAd-LacZ and TAC, TAC suspension was prepared by diluting the commercially available injectable suspension (Kenalog 10, Bristol-Myers Squibb) with isotonic saline solution and added to the HDAd-LacZ preparation (i.e. the injection volume of 50 μL of the test article+TAC mixture contained 0.06 mg TAC).
At necropsy on study day 4, the rats were anesthetized with isoflurane. […]
The tissues were evaluated by the investigator microscopically for inflammation and X-gal staining in a blinded manner. The approximate lengths of the medial and lateral synovia were measured using an ocular micrometer. The lengths of the X-gal-stained areas were measured, and the length of staining relative to the total length of the area (%) was determined. […]

HEK293 cells = experiment: HDAd-LacZ infection with corticosteroid, X-Gal staining for LacZ expression in HEK293 cells; assay type: cell-based; details: dose range of corticosteroid with HDAd-LacZ
Protocol: Methods: 116 cells or HEK293 cells were seeded in 12-well or 96-well plates in standard cell culture media. One day later, cells were infected with the gene therapy vector HDAd-LacZ (a helper-dependent adenoviral vector expressing beta-galactosidase (LacZ) under the control of the constitutive CMV promoter) at different multiplicities of infections (MOIs; virus particles per cells seeded) mixed with different amounts/concentrations of the corticosteroids triamcinolone acetonide (TAC; TriamHEXAL®, Hexal AG, Holzkirchen, Germany), betamethasone (Celestan®, MSD, Kenilworth, NJ, USA), or dexamethasone (Lipotalon®, Recordati, Milan, Italy). HDAd-LacZ was produced by GeneQuine Biotherapeutics GmbH (HDAd-LacZ originally sourced from Baylor College of Medicine, USA). In an experiment evaluating different timing or administration of the corticosteroid relative to administration of the HDAs-LacZ, cells were either pre-treated with TAC 3 hours prior to infection with HDAd-LacZ (PRE), TAC treatment and HDAd-LacZ infection was done simultaneously as described above (SIMULTANEOUS), or cells were treated with TAC 3 hours post infection with HDAd-LacZ (POST). One day later, supernatants were aspirated and cell monolayers were stained for LacZ expression using the X-Gal staining kit according to manufacturer's manual (OZ Bioscience, Marseille, France). Macroscopic and microscopic (at 4× or 10× magnification) photos of the stained monolayers were taken (blue staining indicates LacZ expression). A preliminary measure of intensity of the staining was semi-quantitatively measured using ImageJ software by converting the images to 8-bit grayscale and drawing regions of interest around the areas to be measured. The mean intensity values (on a scale of 0-255; 0 being black and 255 being white) were subtracted from 255, divided by 255 and multiplied by 100, i.e. reported values were on a scale of 0-100 (0 being white and 100 being black) where higher values indicate more intense (darker) staining.

Structure (SMILES) | HDAd-LacZ mediated inflammation (synovial/periarticular) (rat knee joint) | concentration at which enhancement of HDAd-mediated LacZ expression started (HEK293 cells)
CC1(C)O[C@@H]2C[C@H]3[C@@H]4CCC5=CC(=O)C=C[C@]5(C)[C@@]4(F)[C@@H](O)C[C@]3(C)[C@]2(C(=O)CO)O1 [TAC, triamcinolone acetonide] | reduced | 0.18 ng/mL
C[C@H]1C[C@H]2[C@@H]3CCC4=CC(=O)C=C[C@]4(C)[C@@]3(F)[C@@H](O)C[C@]2(C)[C@@]1(O)C(=O)CO [betamethasone] |  | 3.9 ng/mL
C[C@@H]1C[C@H]2[C@@H]3CCC4=CC(=O)C=C[C@]4(C)[C@@]3(F)[C@@H](O)C[C@]2(C)[C@@]1(O)C(=O)CO [dexamethasone] |  | 3.9 ng/mL
